What was measured:
α-glucosidase [1] = molecular target: T1, α-glucosidase (Saccharomyces cerevisiae, UniProt P53341); assay: α-glucosidase inhibition assay; assay type: biochemical, S. cerevisiae
α-glucosidase [2] = molecular target: T1, α-glucosidase; assay: Enzyme kinetics study; assay type: biochemical, S. cerevisiae

T1 sequence (P53341 whole entry): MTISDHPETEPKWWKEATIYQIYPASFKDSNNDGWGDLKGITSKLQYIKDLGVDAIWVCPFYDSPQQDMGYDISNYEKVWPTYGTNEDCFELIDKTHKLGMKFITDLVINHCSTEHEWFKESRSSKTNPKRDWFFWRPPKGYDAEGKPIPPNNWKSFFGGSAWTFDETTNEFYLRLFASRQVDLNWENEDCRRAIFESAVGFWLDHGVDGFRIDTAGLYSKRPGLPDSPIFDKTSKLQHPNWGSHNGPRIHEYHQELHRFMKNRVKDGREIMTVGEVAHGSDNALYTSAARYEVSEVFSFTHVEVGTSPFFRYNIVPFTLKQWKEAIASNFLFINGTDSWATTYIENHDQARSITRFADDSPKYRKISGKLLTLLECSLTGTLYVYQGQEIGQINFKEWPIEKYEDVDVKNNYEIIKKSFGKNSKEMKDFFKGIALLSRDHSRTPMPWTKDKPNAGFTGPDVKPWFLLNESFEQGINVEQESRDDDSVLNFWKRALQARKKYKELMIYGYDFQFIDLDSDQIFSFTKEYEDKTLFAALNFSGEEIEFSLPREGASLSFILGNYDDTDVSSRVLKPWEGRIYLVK

times/folds more active than the standard inhibitor acarbose (α-glucosidase [1])	Compound	also measured
–	COc1ccc(NC(=S)NN=Cc2cn(S(=O)(=O)c3ccc(Cl)cc3)c3ccccc23)cc1 [Compound 5b, 2-({1-[(4-Chlorophenyl)sulfonyl]-1H-indol-3-yl}methylene)-N-(4-methoxyphenyl)hydrazine-1-carbothioamide]	folds more active than 5k (α-glucosidase [1]; 4-methoxyphenyl vs 3-methoxyphenyl): 1.3 folds
fifteen	CC(C)CNC(=S)NN=Cc1cn(S(=O)(=O)c2ccc(Cl)cc2)c2ccccc12 [Compound 5p, 2-({1-[(4-Chlorophenyl)sulfonyl]-1H-indol-3-yl}methylene)-N-isobutylhydrazine-1-carbothioamide]	–
more than 100 folds	O=S(=O)(c1ccc(Cl)cc1)n1cc(C=NNC(=S)Nc2ccc(Br)cc2)c2ccccc21 [Compound 5s, N-(4-Bromophenyl)-2-({1-[(4-chlorophenyl)sulfonyl]-1H-indol-3-yl}methylene)hydrazine-1-carbothioamide]	–
162 folds	O=S(=O)(c1ccc(Cl)cc1)n1cc(C=NNC(=S)Nc2ccc(Br)cc2F)c2ccccc21 [Compound 5u, N-(4-Bromo-2-fluorophenyl)-2-({1-[(4-chlorophenyl)sulfonyl]-1H-indol-3-yl}methylene)hydrazine-1-carbothioamide]	Ki (α-glucosidase [2]): 3.57 ± 0.0084 µM; type of inhibition (α-glucosidase [2]; Km increases, Vmax constant): competitive type inhibitor; better inhibition of 5u compared to 5p (α-glucosidase [1]; most active vs least active inhibitor): about 11 folds
more than 100 folds	O=S(=O)(c1ccc(Cl)cc1)n1cc(C=NNC(=S)Nc2c(Cl)cccc2Cl)c2ccccc21 [Compound 5w, 2-({1-[(4-Chlorophenyl)sulfonyl]-1H-indol-3-yl}methylene)-N-(2,6-dichlorophenyl)hydrazine-1-carbothioamide]	–
